Source: ChEMBL document CHEMBL5154680, “Seco and Nor-seco Isodhilarane-Type Meroterpenoids from Penicillium purpurogenum and the Configuration Revisions of Related Compounds” (J Nat Prod, 2022)
Calls of active or inactive are those of the source. The calls are words filed in the database; no cut-off is given here.

Columns and labels:
Format in all cases: functional, cell-based
HepG2 [1] = assay: Hepatoprotective activity against APAP-induced toxicity in human HepG2 cells assessed as cell survival rate at 10 uM incubated for 48 hrs by MTT assay
A549 = assay: Cytotoxicity against human A549 cells assessed as reduction in cell viability incubated for 24 hrs by MTT assay; conditions: A549, 24 h
HepG2 [2] = assay: Cytotoxicity against human HepG2 cells assessed as reduction in cell viability incubated for 24 hrs by MTT assay; conditions: HepG2, 24 h

Structure (SMILES): COC(=O)[C@]12C(=O)[C@@H](C)O[C@@H]3OC(=O)[C@](C)(C[C@@H]4[C@]1(C)CC=C1C(=CC(=O)OC1(C)C)[C@@]4(C)O)[C@@H]32
- Activity (HepG2 [1]): Active

Structure (SMILES): C[C@H]1O[C@@H]2OC(=O)[C@]3(C)C[C@@H]4[C@](C)(C(=O)C=C5C(=CC(=O)OC5(C)C)[C@@]45CO5)[C@H](C1=O)[C@H]23
- Activity (HepG2 [1]): Active

Structure (SMILES): C[C@H]1O[C@@H]2OC(=O)[C@]3(C)C[C@@H]4[C@@]5(C)C(=C1O[C@H]5C=C1C(=CC(=O)OC1(C)C)[C@@]41CO1)[C@]23O
- Activity (HepG2 [1]): Active

Structure (SMILES): COC(=O)[C@]12C(=O)[C@@H](C)O[C@@H]3OC(=O)[C@](C)(C[C@H]4[C@]5(CO5)C5=CC(=O)OC(C)(C)[C@]56O[C@@H]6C[C@@]41C)[C@@H]32
- Activity (HepG2 [1]): Active

Structure (SMILES): C[C@H]1O[C@@H]2OC(=O)[C@]3(C)C[C@@H]4[C@](C)(C(=O)C=C5C(=CC(=O)OC5(C)C)[C@@]45CO5)[C@H](C1=O)[C@]23O
- IC50 (A549): 6.8 µM
- IC50 (HepG2 [2]): 5.58 µM

Structure (SMILES): COC(=O)[C@]12C(=O)[C@@H](C)O[C@@H]3OC(=O)[C@](C)(C[C@H]4[C@]5(CO5)C5=CC(=O)OC(C)(C)C5=CC[C@@]41C)[C@@H]32
- Activity (HepG2 [1]): Active
